Patent publication US10730883B2 (AbbVie Inc., priority 2015, dated 2020)
“Also recorded” adds a separate entry of the source. Read-outs that look alike come from different tables or passages of the source.

Assays:
clinical [1] = conditions: human, oral; for half-life: plasma; for CL renal: urine and plasma, CLr
Description: Both evaluations followed randomized, double-blind, placebo-controlled designs. Part 1 was conducted at PPD Development (Austin, Tex.) and Part 2 was conducted at two sites: Aspen Clinical Research (Orem, Utah) and Altoona Center for Clinical Research (Duncansville, Pa.).
(§3) Subjects received study drug for 26 consecutive days (Study Days 3 through 28) and a single morning dose of study drug on Study Day 29. […] Subjects were confined to the study site for a total of 10 days—from Day 1 to Day 4 and from Day 27 to Day 31.
(§4) Samples quantified below the LLOQ were reported as zero.
(§5) Renal clearance (CLr) was calculated as Au,0-12/AUC0-12 at steady state.

clinical [2] = conditions: human, oral; for AUC(0-t) / half-life: plasma; for CL renal: urine and plasma
Description: (§6) Both evaluations followed randomized, double-blind, placebo-controlled designs. Part 1 was conducted at PPD Development (Austin, Tex.) and Part 2 was conducted at two sites: Aspen Clinical Research (Orem, Utah) and Altoona Center for Clinical Research (Duncansville, Pa.). Study protocol and informed consents were approved by RCRC IRB (Austin, Tex.) and Quorum Review IRB (Seattle, Wash.).
(§7) Study drug was administered approximately 30 minutes after a standard breakfast (in the morning) or a snack (in the evening). […] Subjects were confined to the study site and supervised for approximately 18 days.
as §4, §5
(§8) Statistical analyses were performed using SAS software (Version 9.3; SAS institute Inc., Cary, N.C., USA).

[3] = Study 1: single-dose escalation PK in healthy subjects
Description: (§9) Study 1 was designed as a single-site, randomized, double-blind, placebo-controlled study. […] Study drug was administered following at least 10 hours of fasting. […] Subjects were confined to the study site and supervised for approximately 8 consecutive days.
as §4, §5, §8

[4] = system: subjects with mild to moderate RA; assay: Study 2-Part 2: safety and tolerability, subjects with RA; assay type: in vivo, human
Description: as §3
Safety was evaluated based on assessments of adverse events, vital signs, physical examination, laboratory metrics, and 12-lead electrocardiogram (ECG). All subjects who received at least one dose of study drug were included in the safety analyses. Subjects who were administered placebo were pooled into a single group within each study or study part. Laboratory test values and vital signs measurements that were above or below the reference range were identified. Subjects were followed-up for a total of 7 days in Study 1, 35 days in Study 2-Part 1, and 57 days in Study 2-Part 2. […] In subjects with RA, the severity of adverse events were rated by the investigator as mild (transient and easily tolerated by the subject), moderate (causes subject discomfort and interrupts the subject's usual activities), or severe (causes considerable interference with the subject's usual activities and may be incapacitating or life-threatening).

[5] = Study 2-Part 1: multiple-dose escalation PK in healthy subjects
Description: as §6, §7, §4, §5, §8

healthy subjects [6] = assay: Study 2-Part 1: safety and tolerability, multiple doses, healthy subjects; assay type: in vivo, human
Description: as §7
Safety was evaluated based on assessments of adverse events, vital signs, physical examination, laboratory metrics, and 12-lead electrocardiogram (ECG). All subjects who received at least one dose of study drug were included in the safety analyses. Subjects who were administered placebo were pooled into a single group within each study or study part. Laboratory test values and vital signs measurements that were above or below the reference range were identified. […] In subjects with RA, the severity of adverse events were rated by the investigator as mild (transient and easily tolerated by the subject), moderate (causes subject discomfort and interrupts the subject's usual activities), or severe (causes considerable interference with the subject's usual activities and may be incapacitating or life-threatening).

clinical [7] = conditions: human, plasma, oral, 48 mg
Description: as §9, §4, §5, §8

healthy subjects [8] = assay: Study 1: safety and tolerability, single doses, healthy subjects
Description: as §9
Safety was evaluated based on assessments of adverse events, vital signs, physical examination, laboratory metrics, and 12-lead electrocardiogram (ECG). All subjects who received at least one dose of study drug were included in the safety analyses. Subjects who were administered placebo were pooled into a single group within each study or study part. Laboratory test values and vital signs measurements that were above or below the reference range were identified. Subjects were followed-up for a total of 7 days in Study 1, 35 days in Study 2-Part 1, and 57 days in Study 2-Part 2.

[9] = Pharmacokinetic interaction of Compound 1 and methotrexate (dose-normalized AUC); assay type: in vivo, human; conditions: FIG. 35A
[10] = Moisture sorption isotherm; assay type: physicochemical; conditions: below 10% relative humidity at 25° C.
Description: Moisture vapor isotherm data were collected with a DVS Advantage (Surface Measurement Systems Ltd, Alperton, United Kingdom). The sample powder (5 mg to 20 mg) was loaded on a tared pan of the DVS Advantage. The moisture sorption isotherm data were collected from 30-0-90-0-30% relative humidity in 10% relative humidity intervals. For each step, the dm/dt criteria was 0.001% over 5 minutes, a minimum dm/dt time of 30 minutes, and a maximum dm/dt of 120 minutes. Data was collected isothermally at 25° C. with a nitrogen flow rate of 200 cm^3/minute. The post DVS sample was kept at approximately 30% relative humidity before PXRD analysis.

[11] = Chemical stability of solid state forms in closed vials at controlled temperature and relative humidity; assay type: physicochemical
Description: (§1) The Amorphous Freebase, however, is hygroscopic and can comprise as much as 12% by weight water at 25° C./90% relative humidity. Environmental controls potentially are required to ensure appropriate control of potency and water content during storage, dispensing, and handling of the Amorphous Freebase.
(§2) The Tartrate Hydrate, however, potentially will convert to an amorphous tartrate below 10% relative humidity, when heated, or when compressed or under shear.

[12] = Solid state accelerated stability study; assay type: physicochemical; conditions: for Growth of degradation products: open and closed glass vials
Description: Samples (approximately 1 mg to 2 mg) of the solid state form were weighed into glass vials and tested as described below.

[13] = Solubility of solid state forms; assay type: physicochemical
[14] = Hygroscopicity / moisture sorption isotherm of solid state forms; assay type: physicochemical; conditions: general statement on the solid state form
Source text: FIG. 6A is a moisture sorption isotherm corresponding to the Amorphous Freebase (via dehydration).
FIG. 6C is a moisture sorption isotherm corresponding to the Tartrate Hydrate.
FIG. 6D is a moisture sorption isotherm corresponding to the Freebase Anhydrate Form D.
In one embodiment, the Tartrate Hydrate has a moisture sorption isotherm profile showing a weight gain of about 1% to about 2% when relative humidity is increased from about 10% relative humidity to about 90% relative humidity at a temperature of 25° C.

[15] = Physical stability of solid state forms (dehydration, desolvation, conversion); assay type: physicochemical; conditions: general statement on the solid state form
Description: The Tartrate Hydrate dehydrated into Amorphous at low relative humidity and high temperature, e.g., <10% RH at 25° C. Shearing and compression potentially cause conversion to the amorphous tartrate, and therefore it is not suitable for compressing into tablet form. Additionally, the filter cake solidified during drying, resulting in the need for additional controls during drying.
In addition, Freebase Hydrate Form C can be grown into different particle sizes.
Freebase Anhydrate Form D can be manufactured only when the water content of the crystallization solvent is low, and will convert to Freebase Hydrate Form C in solutions at high water content. The manufacture of Freebase Anhydrate Form D thus requires strict control of water content. Freebase Anhydrate Form D is slow to crystallize, and difficult to manufacture in higher yield. […] Freebase Hydrate Form C will convert to Freebase Anhydrate Form D in a solution of ethyl acetate with low water content.
The resulting amorphous hydrochloride is hygroscopic. Yields obtained for each of the crystalline hydrochlorides generally have been in the 10% to 15% range.

[16] = Stability of solid state forms to light and peroxide; assay type: physicochemical
Description: as §1, §2

[17] = single 48 mg dose, healthy subjects
[18] = 6 mg BID, Day 14, healthy subjects
[19] = 12 mg BID, Day 14, healthy subjects
[20] = 24 mg BID, Day 14, healthy subjects
[21] = multiple twice-daily doses 3 mg
[22] = multiple twice-daily doses 6 mg
[23] = multiple twice-daily doses 12 mg
[24] = multiple twice-daily doses 24 mg
[25] = multiple twice-daily doses, Total Compound 1
[26] = on average across all dose groups

## CC[C@@H]1CN(C(=O)NCC(F)(F)F)C[C@@H]1c1cnc2cnc3[nH]ccc3n12 [Compound 1, (3S,4R)-3-ethyl-4-(3H-imidazo[1,2-a]pyrrolo[2,3-e]pyrazin-8-yl)-N-(2,2,2-trifluoroethyl)pyrrolidine-1-carboxamide]
Clinical [1]; 6 mg, t1/2F (functional half-life), 6 mg BID, Day 29, subjects with RA, harmonic mean
  half-life: 3.5 h
Clinical [1]; 12 mg, t1/2F (functional half-life), 12 mg BID, Day 29, subjects with RA, harmonic mean
  half-life: 3.7 h
Clinical [1]; 24 mg, t1/2F (functional half-life), 24 mg BID, Day 29, subjects with RA, harmonic mean
  half-life: 3.6 h
Clinical [1]; functional half-life, subjects with RA on stable doses of methotrexate
  half-life: ~4 h
Clinical [1]; 6 mg, 6 mg BID, Day 28, subjects with RA
  CL renal: 116 mL/min
Clinical [1]; 6 mg, 6 mg BID, Day 29, subjects with RA
  CL renal: 82.2 mL/min
Clinical [1]; 12 mg, 12 mg BID, Day 28, subjects with RA
  CL renal: 104 mL/min
Clinical [1]; 12 mg, 12 mg BID, Day 29, subjects with RA
  CL renal: 82.7 mL/min
Clinical [1]; 24 mg, 24 mg BID, Day 28, subjects with RA
  CL renal: 105 mL/min
Clinical [2]; 3 mg
  AUC(0-t): 78.3 ± 20.3 ng·h/mL
  half-life: 3.2 ± 0.4 h
  CL renal: 125 mL/min
Clinical [2]; 6 mg
  AUC(0-t): 138 ± 16.7 ng·h/mL
  half-life: 3.3 ± 0.3 h
Clinical [2]; 12 mg
  half-life: 3.2 ± 0.5 h
  CL renal: 162 mL/min
[3]; [17]
  CL/F: 47.6 ± 8.97 L/h
  dose-normalized AUC∞ lower than that following 3 mg dose: 40%
[3]; single dose range of 3 to 36 mg and multiple dose range of 3 mg to 24 mg BID
  Dose proportionality of exposures: dose proportional
[4]; Compound 1 dose groups (total of 11 subjects with RA)
  subjects with at least one TEAE: Five subjects
[4]; Compound 1 dose groups, subjects with RA
  number of TEAEs reported: 7
[5]; 3 mg BID, Day 14, healthy subjects
  Ctrough: 1.46 ± 0.50 ng/mL
[5]; [18]
  CL/F: 43.9 ± 5.4 L/h
  Ctrough: 2.29 ± 0.41 ng/mL
[5]; [19]
  CL/F: 45.5 ± 8.04 L/h
  Ctrough: 4.54 ± 1.55 ng/mL
[5]; [20]
  CL/F: 46.1 ± 6.44 L/h
  Ctrough: 9.50 ± 2.57 ng/mL
[5]; 24 mg BID, Day 14, healthy subjects, harmonic mean ± pseudo-SD
  t1/2F (functional half-life): 3.3 ± 0.4 h
[5]; estimated from Cmax to Ctrough ratio at steady-state, healthy volunteers
  functional half-life: approximately 3 hours
[5]; multiple dosing, healthy volunteers
  pre-dose concentrations on Study Day 13 lower compared with Study Day 5: 13%
Healthy subjects [6]; [21]
  Abdominal Discomfort, subjects: 0
  Abdominal Pain, subjects: 0
  Diarrhoea, subjects: 0
  Headache, subjects: 0
  Nasopharyngitis, subjects: 1 (12.5%)
Healthy subjects [6]; [22]
  Abdominal Discomfort, subjects: 0
  Abdominal Pain, subjects: 1 (12.5%)
  Diarrhoea, subjects: 1 (12.5%)
  Headache, subjects: 2 (25.0%)
  Nasopharyngitis, subjects: 1 (12.5%)
Healthy subjects [6]; [23]
  Abdominal Discomfort, subjects: 0
  Abdominal Pain, subjects: 0
  Diarrhoea, subjects: 1 (12.5%)
  Headache, subjects: 2 (25.0%)
  Nasopharyngitis, subjects: 0
Healthy subjects [6]; [24]
  Abdominal Discomfort, subjects: 0
  Abdominal Pain, subjects: 1 (12.5%)
  Diarrhoea, subjects: 0
  Headache, subjects: 1 (12.5%)
  Nasopharyngitis, subjects: 0
Healthy subjects [6]; [25]
  Abdominal Discomfort, subjects: 0
  Abdominal Pain, subjects: 2 (6.3%)
  Diarrhoea, subjects: 2 (6.3%)
  Headache, subjects: 5 (15.6%)
  Nasopharyngitis, subjects: 2 (6.3%)
Healthy subjects [6]; multiple-dose administration in healthy subjects for 14 days
  changes in hematologic parameters: no clinically significant changes
Clinical [7]
  AUC(0-inf): 1040 ± 174 ng·h/mL
  AUC(0-t): 1030 ± 174 ng·h/mL
Healthy subjects [8]; single dose 48 ng
  Headache, subjects: 2 (33.3%)
  Presyncope, subjects: 0
Healthy subjects [8]; single dose 1 mg
  Headache, subjects: 0
  Presyncope, subjects: 0
Healthy subjects [8]; single dose 3 mg
  Headache, subjects: 0
  Presyncope, subjects: 0
Healthy subjects [8]; single dose 6 mg
  Headache, subjects: 0
  Presyncope, subjects: 1 (16.7%)
Healthy subjects [8]; single dose 12 mg
  Headache, subjects: 0
  Presyncope, subjects: 0
Healthy subjects [8]; single dose 24 mg
  Headache, subjects: 0
  Presyncope, subjects: 1 (16.7%)
Healthy subjects [8]; single dose 36 mg
  Headache, subjects: 0
  Presyncope, subjects: 0
Healthy subjects [8]; single doses up to 48 mg and multiple twice daily doses up to 24 mg, immediate-release formulation
  Tolerability: well-tolerated
Healthy subjects [8]; single doses up to 48 mg or multiple doses up to 24 mg twice daily
  dose-limiting toxicities or safety concerns: no dose-limiting toxicities or safety concerns
Healthy subjects [8]; single doses, Total Compound 1
  Presyncope, subjects: 2 (4.8%)
Healthy subjects [8]; single doses, healthy subjects
  Severity of TEAEs: mild
Healthy subjects [8]; single or multiple dose studies
  maximum tolerated dose: not reached
6 mg BID, Day 28, subjects with RA
  Ctrough: 5.81 ng/mL
12 mg BID, Day 28, subjects with RA
  AUC0-12: 334 ng·h/mL
12 mg BID, Day 29, subjects with RA
  Ctrough: 6.44 ng/mL
24 mg BID, Day 28, subjects with RA
  Ctrough: 15.3 ng/mL
24 mg BID, Day 29, subjects with RA
  Ctrough: 14.9 ng/mL
[26]
  apparent oral clearance lower in subjects with RA compared to healthy subjects: 23%
  higher exposure in subjects with RA than in healthy subjects: approximately 30%
[9]
  effect of concomitant methotrexate administration on Compound 1 dose-normalized AUC: lack of effect

## CC[C@@H]1CN(C(=O)NCC(F)(F)F)C[C@@H]1c1cnc2cnc3[nH]ccc3n12.O.O.O.O.O=C(O)C(O)C(O)C(=O)O [Tartrate Hydrate, (3S,4R)-3-ethyl-4-(3H-imidazo[1,2-a]pyrrolo[2,3-e]pyrazin-8-yl)-N-(2,2,2-trifluoroethyl)pyrrolidine-1-carboxamide tartrate tetrahydrate]
[10]
  Dehydration in moisture sorption isotherm analysis: dehydrates to an amorphous tartrate
[11]; closed vials, 30° C./65% relative humidity and 40° C./75% relative humidity over 12 weeks, 50° C./75% relative humidity over 6 weeks
  degradation observed in closed vials: no degradation
[11]; general statement on the solid state form
  chemical stability: acceptable chemical stability
[12]; 25° C./60% relative humidity, up to 24 months
  Growth of degradation products: no growth of degradation products
[12]; 40° C./75% relative humidity, at least one month
  Growth of degradation products: no growth of degradation products
[12]; 50° C./75% relative humidity, up to six weeks
  Growth of degradation products: no growth of degradation products
[12]; solid state accelerated stability study
  chemical stability: acceptable
[12]; storage conditions of the accelerated stability study
  Change in attributes evaluated (description, crystal form, assay, impurities and water content): No material change
[13]
  BCS class: Class I
[13]; Amorphous Freebase: relative to the corresponding crystalline forms
  Solubility: high solubility; also recorded: good solubility
[14]
  hygroscopicity: not hygroscopic
[15]
  physical stability: lack of physical stability
[16]
  stability to light and peroxide: acceptable stability
